Source: patent US20130102595A1 (Curis, Inc., priority 2011, published 2013)

How the values were obtained:
A549 = test: Cell proliferation assay (CellTiter-Glo); assay type: cell-based; conditions: Homo sapiens, NSCLC, 72 hours, 0.5% fetal bovine serum, read-out: antiproliferative activity IC50, A549
How it was run: (§1)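 Cancer cells seeded at 5,000–10,000/well and exposed to a concentration range of compound for 72 h in 0.5% FBS. Growth inhibition read as ATP content by luciferase luminescence after 30 min lysis.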

CaPan1 = test: Cell proliferation assay (CellTiter-Glo); assay type: cell-based; conditions: Homo sapiens, CAPAN-1; Pancreas; 72 hours, 0.5% fetal bovine serum; read-out: antiproliferative activity IC50, CaPan1
How it was run: as §1

H2122 = test: Cell proliferation assay (CellTiter-Glo); assay type: cell-based; conditions: Homo sapiens, NCI-H2122; NSCLC; 72 hours, 0.5% fetal bovine serum; read-out: antiproliferative activity IC50, H2122
How it was run: as §1

H358 = test: Cell proliferation assay (CellTiter-Glo); assay type: cell-based; conditions: Homo sapiens, NCI-H358; NSCLC; 72 hours, 0.5% fetal bovine serum; read-out: antiproliferative activity IC50, H358
How it was run: as §1

LN-Cap = test: Cell proliferation assay (CellTiter-Glo); assay type: cell-based; conditions: Homo sapiens, LNCaP; Prostate; 72 hours, 0.5% fetal bovine serum; read-out: antiproliferative activity IC50, LN-Cap
How it was run: as §1

OPM-2 = test: Cell proliferation assay (CellTiter-Glo); assay type: cell-based; conditions: Homo sapiens, Multiple Myeloma, 72 hours, 0.5% fetal bovine serum, read-out: antiproliferative activity IC50, OPM-2
How it was run: as §1

OVCAR-5 = test: Cell proliferation assay (CellTiter-Glo); assay type: cell-based; conditions: Homo sapiens, Ovarian, 72 hours, 0.5% fetal bovine serum, read-out: antiproliferative activity IC50, OVCAR-5
How it was run: as §1

PC-3 = test: Cell proliferation assay (CellTiter-Glo); assay type: cell-based; conditions: Homo sapiens, Prostate, 72 hours, 0.5% fetal bovine serum, read-out: antiproliferative activity IC50, PC-3
How it was run: as §1

SW620 = test: Cell proliferation assay (CellTiter-Glo); assay type: cell-based; conditions: Homo sapiens, SW-620; Colon; 72 hours, 0.5% fetal bovine serum; read-out: antiproliferative activity IC50, SW620
How it was run: as §1

SWI-116 = test: Cell proliferation assay (CellTiter-Glo); assay type: cell-based; conditions: Colon; 72 hours, 0.5% fetal bovine serum; read-out: antiproliferative activity IC50, SWI-116
How it was run: as §1

T-84 = test: Cell proliferation assay (CellTiter-Glo); assay type: cell-based; conditions: Homo sapiens, T84; Colon; 72 hours, 0.5% fetal bovine serum; read-out: antiproliferative activity IC50, T-84
How it was run: as §1

| IC50 (A549) [nM] | IC50 (H2122) [nM] | IC50 (H358) [nM] | IC50 (OVCAR-5) [nM] | IC50 (PC-3) [nM] | IC50 (SW620) [nM] | melting point [°C] | SMILES | IC50 (CaPan1) [nM] | IC50 (LN-Cap) [nM] | IC50 (OPM-2) [nM] | IC50 (SWI-116) [nM] | IC50 (T-84) [nM] |
| --- | --- | --- | --- | --- | --- | --- | --- | --- | --- | --- | --- | --- |
| < 10 | < 10 | < 10 | < 10 | 10 to 100 | < 10 |  | CN(Cc1cc2nc(-c3ccc(N)cc3)nc(N3CCOCC3)c2s1)c1ncc(C(=O)NO)cn1 [Compound 150, 2-(((2-(4-aminophenyl)-4-morpholinothieno[3,2-d]pyrimidin-6-yl)methyl)(methyl)amino)-N-hydroxypyrimidine-5-carboxamide] | 100 to 1000 | < 10 | < 10 | < 10 | 10 to 100 |
|  |  |  |  |  |  | 197 to 200 | CN(Cc1cc2nc(-c3cccc4[nH]ncc34)nc(N3CCOCC3)c2s1)c1ncc(C(=O)NO)cn1 [Compound 54, 2-(((2-(1H-indazol-4-yl)-4-morpholinothieno[3,2-d]pyrimidin-6-yl)methyl)(methyl)amino)-N-hydroxypyrimidine-5-carboxamide] | 10 to 100 |  |  |  |  |
| 10 to 100 | < 10 | < 10 |  |  | < 10 |  | CNc1ccc(-c2nc(N3CCOCC3)c3sc(CN(C)c4ncc(C(=O)NO)cn4)cc3n2)cn1 [Compound 111, N-Hydroxy-2-(methyl((2-(6-(methylamino)pyridin-3-yl)-4-morpholinothieno[3,2-d]pyrimidin-6-yl)methyl)amino)pyrimidine-5-carboxamide] |  |  | < 10 | < 10 | 10 to 100 |
